pIC50: −log10 of the molar value.
Tests used:
[1] = system: KM12; test: NCI 60 cell line screen (Colon Cancer); format: cell-based, human
[2] = system: NCI 60 cell line panel; test: NCI 60 cell line screen, panel means; format: cell-based, human
[3] = system: COLO 205; test: NCI 60 cell line screen (Colon Cancer); format: cell-based, human
[4] = system: NCI-H23; test: NCI 60 cell line screen (Non-Small Cell Lung Cancer); format: cell-based, human
[5] = system: HCT-116; test: NCI 60 cell line screen (Colon Cancer); format: cell-based, human
[6] = system: HOP-62; test: NCI 60 cell line screen (Non-Small Cell Lung Cancer); format: cell-based, human
[7] = system: TK-10; test: NCI 60 cell line screen (Renal Cancer); format: cell-based, human
[8] = system: 786-0; test: NCI 60 cell line screen (Renal Cancer); format: cell-based, human
[9] = system: HOP-92; test: NCI 60 cell line screen (Non-Small Cell Lung Cancer); format: cell-based, human
[10] = system: SW-620; test: NCI 60 cell line screen (Colon Cancer); format: cell-based, human
[11] = system: BT-549; test: NCI 60 cell line screen (Breast Cancer); format: cell-based, human
[12] = system: U251 (AC in Table 3); test: NCI 60 cell line screen (CNS Cancer); format: cell-based, human
[13] = system: A549/ATCC; test: NCI 60 cell line screen (Non-Small Cell Lung Cancer); format: cell-based, human
[14] = system: CAKI-1; test: NCI 60 cell line screen (Renal Cancer); format: cell-based, human
[15] = system: SNB-19; test: NCI 60 cell line screen (CNS Cancer); format: cell-based, human
[16] = target: T1, CYP1A1 (Homo sapiens, UniProt P04798); test: cytochrome P450 assay (DBF fluorescence)
T1 sequence (P04798 1-512): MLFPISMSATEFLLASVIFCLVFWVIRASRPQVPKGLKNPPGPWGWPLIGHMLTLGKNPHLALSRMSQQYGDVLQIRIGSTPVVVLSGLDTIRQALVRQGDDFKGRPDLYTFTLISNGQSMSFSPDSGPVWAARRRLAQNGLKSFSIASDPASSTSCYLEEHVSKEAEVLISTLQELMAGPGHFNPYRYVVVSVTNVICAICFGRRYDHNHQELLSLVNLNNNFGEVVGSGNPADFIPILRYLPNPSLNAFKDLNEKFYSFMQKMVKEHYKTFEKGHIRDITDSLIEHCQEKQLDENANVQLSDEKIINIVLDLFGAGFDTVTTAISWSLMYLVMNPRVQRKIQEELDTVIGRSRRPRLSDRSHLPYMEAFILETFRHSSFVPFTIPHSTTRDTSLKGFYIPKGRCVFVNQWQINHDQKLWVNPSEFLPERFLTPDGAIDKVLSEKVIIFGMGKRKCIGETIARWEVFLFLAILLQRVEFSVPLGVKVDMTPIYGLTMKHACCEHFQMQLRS

[17] = system: RPMI-8226; test: NCI 60 cell line screen (Leukemia); format: cell-based, human
[18] = toxicity evaluation, alamarBlue assay; format: cell-based, human; conditions: human, MCF-10A cells
[19] = system: MALME-3M; test: NCI 60 cell line screen (Melanoma); format: cell-based, human; conditions: single dose 10 µM
[20] = system: OVCAR-5; test: NCI 60 cell line screen (Ovarian Cancer); format: cell-based, human
[21] = system: HCT-2998; test: NCI 60 cell line screen (Colon Cancer); format: cell-based, human
[22] = system: NCI-H460; test: NCI 60 cell line screen (Non-Small Cell Lung Cancer); format: cell-based, human
[23] = system: NCI-H552; test: as above; format: cell-based, human
[24] = system: MDA-MB-435; test: NCI 60 cell line screen (Melanoma); format: cell-based, human
[25] = system: OVCAR-4; test: NCI 60 cell line screen (Ovarian Cancer); format: cell-based, human
[26] = system: PC-3; test: NCI 60 cell line screen (Prostate cancer); format: cell-based, human
[27] = system: RXF 393; test: NCI 60 cell line screen (Renal Cancer); format: cell-based, human
[28] = system: T-47D; test: NCI 60 cell line screen (Breast Cancer); format: cell-based, human; conditions: single dose 10 µM
[29] = system: OVCAR-3; test: NCI 60 cell line screen (Ovarian Cancer); format: cell-based, human
[30] = system: SNB-75; test: NCI 60 cell line screen (CNS Cancer); format: cell-based, human; conditions: SNB-75, single dose 10 µM
[31] = system: UACC-257; test: NCI 60 cell line screen (Melanoma); format: cell-based, human
[32] = system: NCI/ADR-RES; test: NCI 60 cell line screen (Ovarian Cancer); format: cell-based, human

COc1ccc(C(c2cc(OC)c(OC)c(OC)c2)n2cncn2)cc1O (stereo not drawn) [19e, 5-((1H-1,2,4-Triazol-1-yl)(3,4,5-Trimethoxyphenyl)methyl)-2-Methoxyphenol]
GI50 ([1]; Homo sapiens, KM12, NCI 5 dose assay): 418 nM | Growth percentage ([1]; KM12, single dose 10 µM): 21.79% | Mean Growth percentage ([2]; 60 cell line panel, single dose 10 µM): 26.24% | MID TGI (total growth inhibition) ([2]; 60 cell lines): 53700 nM | GI50 ([2]; Homo sapiens, 60 cell, NCI 5 dose assay, 60 cell lines, read-out: MG-MID (mean of GI50 values over all cell lines)): 243 nM | Growth percentage ([3]; COLO 205, single dose 10 µM): -1.65% | GI50 ([3]; Homo sapiens, COLO 205, NCI 5 dose assay): 332 nM | GI50 ([4]; Homo sapiens, NCI-H23, NCI 5 dose assay): 977 nM | Growth percentage ([4]; NCI-H23, single dose 10 µM): 39.85% | Growth percentage ([5]; HCT-116, single dose 10 µM): 7.25% | GI50 ([5]; Homo sapiens, HCT-116, NCI 5 dose assay): 448 nM | Growth percentage ([6]; HOP-62, single dose 10 µM): 32.17% | GI50 ([6]; Homo sapiens, HOP-62, NCI 5 dose assay): 514 nM | GI50 ([7]; Homo sapiens, TK-10, NCI 5 dose assay): > 100000 nM | Growth percentage ([7]; TK-10, single dose 10 µM): 61.31% | Growth percentage ([8]; 786-0, single dose 10 µM): 28.10% | GI50 ([8]; Homo sapiens, 786-0, NCI 5 dose assay): 475 nM | Growth percentage ([9]; HOP-92, single dose 10 µM): 43.92% | GI50 ([9]; Homo sapiens, HOP-92, NCI 5 dose assay): 9690 nM | GI50 ([10]; Homo sapiens, SW-620, NCI 5 dose assay): 431 nM | Growth percentage ([10]; SW-620, single dose 10 µM): 29.08% | Growth percentage ([11]; BT-549, single dose 10 µM): 11.30% | GI50 ([11]; Homo sapiens, BT-549, NCI 5 dose assay): 618 nM | GI50 ([12]; Homo sapiens, U-251, cell line printed AC, NCI 5 dose assay): 446 nM | Growth percentage ([12]; U251, single dose 10 µM): 15.32% | GI50 ([13]; Homo sapiens, NCI 5 dose assay): 969 nM | Growth percentage ([13]; single dose 10 µM): 18.6% | Growth percentage ([14]; CAKI-1, single dose 10 µM): 40.43% | GI50 ([14]; Homo sapiens, CAKI-1, NCI 5 dose assay): 567 nM | GI50 ([15]; Homo sapiens, SNB-19, NCI 5 dose assay): 578 nM | Growth percentage ([15]; SNB-19, single dose 10 µM): 33.31% | pIC50 ([16]; IC50 CYP1A1): < 4.27 | inhibition at 25 min, 20 µg/mL ([16]; human, recombinant CYP1A1, pH 7.4, probe dibenzylfluorescein (DBF), 2.0 μM): 18.1% | GI50 ([17]; Homo sapiens, RPMI-8226, NCI 5 dose assay): 452 nM | Growth percentage ([17]; RPMI-8226, single dose 10 µM): 20.71% | viability at 48 h, 0.4 µM ([18]; 0.4 μM, 48 h): ~100% | viability at 48 h, 0.5 µM ([18]; 0.5 μM, 48 h): ~100% | viability at 24 h, 1 µM ([18]; 1 μM, 24 h, read-out: cell viability): 99% | viability at 48 h, 1 µM ([18]; 1 μM, 48 h, read-out: percentage of viable cells): > 94% | viability at 72 h, 1 µM ([18]; 1 μM, 72 h, read-out: percentage of viable cells): > 80% | viability at 48 h, 10 µM ([18]; 10 μM, 48 h, read-out: percentage of viable cells): ~30% | Growth percentage [19]: 70.24% | GI50 ([20]; Homo sapiens, OVCAR-5, NCI 5 dose assay): 1990 nM | Growth percentage ([20]; OVCAR-5, single dose 10 µM): 72.98% | Growth percentage ([21]; HCT-2998, single dose 10 µM): 25.25% | GI50 ([21]; Homo sapiens, 60 cell, HCT-2998, NCI 5 dose assay): 1350 nM | GI50 ([22]; Homo sapiens, NCI-H460, NCI 5 dose assay): 414 nM | Growth percentage ([22]; NCI-H460, single dose 10 µM): 9.82% | GI50 ([23]; Homo sapiens, 60 cell, NCI-H552, NCI 5 dose assay): 395 nM | Growth percentage ([23]; NCI-H552, single dose 10 µM): 12.78% | GI50 ([24]; Homo sapiens, MDA-MB-435, NCI 5 dose assay): 181 nM | Growth percentage ([24]; MDA-MB-435, single dose 10 µM): -46.16% | GI50 ([25]; Homo sapiens, OVCAR-4, NCI 5 dose assay): 3020 nM | Growth percentage ([25]; OVCAR-4, single dose 10 µM): 72.08% | GI50 ([26]; Homo sapiens, PC-3, NCI 5 dose assay): 431 nM | Growth percentage ([26]; PC-3, single dose 10 µM): 21.20% | GI50 ([27]; Homo sapiens, RXF 393, NCI 5 dose assay): 321 nM | Growth percentage ([27]; RXF 393, single dose 10 µM): -13.85% | Growth percentage [28]: 34.98% | GI50 ([29]; Homo sapiens, OVCAR-3, NCI 5 dose assay): 323 nM | Growth percentage ([29]; OVCAR-3, single dose 10 µM): 1.74% | Growth percentage [30]: 48.64% | GI50 ([31]; Homo sapiens, UACC-257, NCI 5 dose assay): > 100000 nM | Growth percentage ([31]; UACC-257, single dose 10 µM): 44.45% | GI50 ([32]; Homo sapiens, NCI 5 dose assay): 1180 nM | Growth percentage ([32]; single dose 10 µM): 1.80%

From article PMC7926793, “Synthesis and Biological Evaluation of 1-(Diarylmethyl)-1H-1,2,4-triazoles and 1-(Diarylmethyl)-1H-imidazoles as a Novel Class of Anti-Mitotic Agent for Activity in Breast Cancer” (Pharmaceuticals, 2021)
